From article PMC4193777 (PLoS ONE, 2014)

Tests used:
[1] = biological target: T1, FPR2 (Homo sapiens, UniProt P25090); assay: Neutrophil NADPH-oxidase activity (superoxide release), direct activation of naive cells; format: cell-based
T1 construct: Human peripheral blood neutrophils were isolated from buffy coats from healthy blood donors; endogenous in cells; host or cells: primary human peripheral blood neutrophils from buffy coats of healthy donors
T1 sequence (P25090 1-351): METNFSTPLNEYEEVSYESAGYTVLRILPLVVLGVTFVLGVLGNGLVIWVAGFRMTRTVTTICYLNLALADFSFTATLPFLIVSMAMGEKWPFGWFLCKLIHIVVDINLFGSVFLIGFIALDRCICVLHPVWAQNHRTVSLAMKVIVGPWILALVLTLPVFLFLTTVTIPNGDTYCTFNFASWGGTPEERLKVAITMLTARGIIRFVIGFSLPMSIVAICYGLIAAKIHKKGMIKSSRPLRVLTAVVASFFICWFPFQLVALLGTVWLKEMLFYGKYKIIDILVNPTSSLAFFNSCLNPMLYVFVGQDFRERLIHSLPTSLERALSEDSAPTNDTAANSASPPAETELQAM
Protocol: (§1) Human peripheral blood neutrophils were isolated from buffy coats from healthy blood donors using dextran sedimentation and Ficoll-Paque gradient centrifugation as described. The remaining erythrocytes were disrupted by hypotonic lysis, the neutrophils were washed twice, resuspended in KRG, and stored on melting ice until use. This isolation procedure permits cells to be purified with minimal granule mobilization.
The NADPH-oxidase activity was determined using isoluminol-enhanced chemiluminescence (CL), [27]. The CL activity was measured in a six-channel Biolumat LB 9505 (Berthold Co., Wildbad, Germany), using disposable 4-ml polypropylene tubes with a 900 µl reaction mixture containing 10^5 cells, isoluminol (2×10^−5 M) and HRP (2 U). The tubes were equilibrated in the Biolumat for 5 min at 37°C, after which the stimulus (100 µl) was added and the light emission was recorded continuously. Receptor desensitized cells were defined as naïve (non-desensitized) cells that had first been stimulated with a receptor specific agonist and returned to baseline after the resulting release of superoxide before a second stimulation. When reactivation experiments were performed with antagonists, the antagonists were added to the CL reaction mixture 1 min before the second stimulation. For studies with signaling inhibitors, cells were incubated with inhibitors at 37°C for 15 min before agonist addition. Control cells received no treatment but were incubated under the same conditions.
Data analysis was performed using GraphPad Prism 6.0 (Graphpad Software, San Diego, CA, USA).
Representative experiments out of more than five are shown and an arrow indicates the time point for agonist addition. Abscissa: Time of study (min); ordinate: Superoxide production (Mcpm).

[2] = biological target: T1, FPR2; assay: Homologous desensitization of neutrophils (superoxide); format: cell-based; settings: first F2Pal10 (500 nM) then WKYMVM (40 nM), or reversed order, five minutes apart
Protocol: as §1
The NADPH-oxidase activity was determined using isoluminol-enhanced chemiluminescence (CL), [27]. The CL activity was measured in a six-channel Biolumat LB 9505 (Berthold Co., Wildbad, Germany), using disposable 4-ml polypropylene tubes with a 900 µl reaction mixture containing 10^5 cells, isoluminol (2×10^−5 M) and HRP (2 U). The tubes were equilibrated in the Biolumat for 5 min at 37°C, after which the stimulus (100 µl) was added and the light emission was recorded continuously. […]
Figure 1 The F2Pal10 pepducin specifically activates FPR2. A. Primary human neutrophils were activated by F2Pal10 (500 nM) in the absence (solid line) or presence of the receptor specific inhibitor PBP10 (FPR2 specific inhibitor; 1 µM final concentration, dashed line) or the FPR1 antagonist cyclosporin H (CysH; 1 µM final concentration, dotted line) and the release of superoxide anions was recorded continuously. […] The release of superoxide anions was recorded continuously. […]

[3] = tested on: neutrophils; assay: Calcium mobilization in neutrophils; format: cell-based, human; settings: WKYMVM 100 nM or F2Pal10 500 nM
Protocol: Neutrophils or transfected HL-60 cells at a density of 5×10^7 cells/ml in KRG containing 0.1% BSA were loaded with 5 µM FURA 2-AM for 30 minutes in the dark at room temperature. The cells were then diluted 1/2 in RPMI 1640 culture medium without phenol red (PAA Laboratories GmbH, Pasching, Austria) and centrifuged. Finally, the cells were washed once with KRG and resuspended in the same buffer at a density of 2×10^7/ml. Calcium measurements were carried out in a PerkinElmer fluorescence spectrophotometer (LC50), with excitation wavelengths of 340 nm and 380 nm, an emission wavelength of 509 nm, and slit widths of 5 nm and 10 nm, respectively. The transient rise in intracellular calcium is presented as the ratio of fluorescence intensities (340 nm: 380 nm) detected. The measuring cuvette contained catalase (2000 U) to counteract inactivation of the chemoattractants by the MPO-H2O2-system. […] The relative calcium level was expressed as a ratio between Fluo-3 and Fura Red (FL-1/FL-3) fluorescence over time.
Figure 5 F2Pal10 induces pertussis toxin sensitive superoxide production and triggers mobilization of calcium from intracellular stores. […] Abscissa, time of study (sec); ordinate, fluorescence (arbitrary unit). […]

CSCC[C@H](NC(=O)[C@@H](NC(=O)[C@H](CCSC)NC(=O)[C@H](Cc1ccc(O)cc1)NC(=O)[C@H](CCCCN)NC(=O)[C@@H](N)Cc1c[nH]c2ccccc12)C(C)C)C(N)=O [WKYMVM]
concentration inducing comparable sub-maximum response, pair 1 ([1]; first stimulation of naive neutrophils, 10 nM WKYMVM≈100 nM F2Pal10): 10 nM | concentration inducing comparable sub-maximum response, pair 2 ([1]; first stimulation of naive neutrophils, 25 nM WKYMVM≈250 nM F2Pal10): 25 nM | concentration inducing comparable sub-maximum response, pair 3 ([1]; first stimulation of naive neutrophils, 40 nM WKYMVM≈500 nM F2Pal10): 40 nM | time to peak of radical production ([1]; upon stimulation of neutrophils): around one | desensitization to second FPR2 agonist [2]: vice versa | rise in cytosolic Ca2+ in neutrophils ([3]; Fluo-3/Fura Red, without EGTA): a rise in the cytosolic concentration of Ca^2+ was induced | rise in cytosolic Ca2+ in neutrophils, with EGTA ([3]; extracellular Ca2+ removed by EGTA (2 mM)): The rise was evident also when extracellular Ca^2+ was removed
